{"source": "patent US20100105655A1", "about": "“NOVEL COMPOUNDS 515” (ASTRAZENECA AB, priority 2008, published 2010)", "data": [{"molecular_target": "T1, IGFR kinase (Homo sapiens, UniProt P08069)", "T1 construct": "purchased Millipore", "T1 sequence (P08069 31-1367)": "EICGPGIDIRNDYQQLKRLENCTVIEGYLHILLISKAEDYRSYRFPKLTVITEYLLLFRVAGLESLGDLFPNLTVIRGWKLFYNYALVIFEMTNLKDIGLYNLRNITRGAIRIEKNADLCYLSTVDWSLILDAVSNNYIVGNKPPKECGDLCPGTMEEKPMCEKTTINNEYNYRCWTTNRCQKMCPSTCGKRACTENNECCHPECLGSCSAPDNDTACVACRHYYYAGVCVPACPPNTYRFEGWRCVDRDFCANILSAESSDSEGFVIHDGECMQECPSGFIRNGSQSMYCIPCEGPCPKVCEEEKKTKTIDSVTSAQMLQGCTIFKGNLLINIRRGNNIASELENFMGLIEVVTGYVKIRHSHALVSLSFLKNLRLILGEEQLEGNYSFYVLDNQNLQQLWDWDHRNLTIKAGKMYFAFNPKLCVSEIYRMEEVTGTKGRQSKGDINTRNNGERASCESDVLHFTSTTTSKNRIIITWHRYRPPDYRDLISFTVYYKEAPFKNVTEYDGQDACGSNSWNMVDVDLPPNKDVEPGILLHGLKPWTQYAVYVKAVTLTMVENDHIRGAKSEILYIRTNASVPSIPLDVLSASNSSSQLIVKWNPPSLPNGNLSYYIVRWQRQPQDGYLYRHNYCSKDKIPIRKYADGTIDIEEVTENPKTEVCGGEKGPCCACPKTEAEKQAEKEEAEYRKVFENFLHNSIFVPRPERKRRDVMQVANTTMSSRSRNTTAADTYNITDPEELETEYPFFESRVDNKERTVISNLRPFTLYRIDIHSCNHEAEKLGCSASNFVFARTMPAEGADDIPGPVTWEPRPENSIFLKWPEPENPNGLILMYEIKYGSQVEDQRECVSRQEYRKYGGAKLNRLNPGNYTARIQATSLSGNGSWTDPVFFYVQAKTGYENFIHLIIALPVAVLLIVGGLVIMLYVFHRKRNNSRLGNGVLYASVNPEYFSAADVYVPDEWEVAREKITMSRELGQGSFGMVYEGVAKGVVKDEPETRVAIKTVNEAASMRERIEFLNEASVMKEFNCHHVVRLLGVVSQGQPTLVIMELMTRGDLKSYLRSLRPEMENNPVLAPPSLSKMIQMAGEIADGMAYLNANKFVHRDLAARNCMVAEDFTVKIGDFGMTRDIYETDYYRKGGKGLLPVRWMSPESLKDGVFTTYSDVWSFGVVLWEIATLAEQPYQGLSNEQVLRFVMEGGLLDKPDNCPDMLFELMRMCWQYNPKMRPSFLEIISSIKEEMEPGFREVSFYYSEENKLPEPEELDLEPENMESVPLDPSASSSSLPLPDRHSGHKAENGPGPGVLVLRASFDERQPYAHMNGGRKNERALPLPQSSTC", "test": "Enzyme assay (c), IGFR kinase, Caliper LabChip", "format": "biochemical", "details": "not given", "units": {"IC50": "nM"}, "values": [{"compound": "COc1cc(N2CC3CNCC(C2)O3)ccc1Nc1ncc(Cl)c(-c2cnc3c(F)cccn23)n1", "note": "[Example 183, 5-chloro-4-(8-fluoroimidazo[1,2-a]pyridin-3-yl)-N-[2-methoxy-4-(9-oxa-3,7-diazabicyclo[3.3.1]nonan-7-yl)phenyl]pyrimidin-2-amine]", "IC50": 7}]}, {"molecular_target": "T1, IGFR kinase", "test": "Enzyme assay (c), IGFR kinase, Caliper LabChip", "format": "biochemical", "details": "30 nM IGFR kinase, 6 uM ATP, 3 uM peptide mix; read-out: IGFR IC50", "units": {"IC50": "nM"}, "values": [{"compound": "CNCC(=O)N1CCN(c2ccc(Nc3ncc(C)c(-c4cnn5ccccc45)n3)c(OC)c2)CC1", "note": "[Example 160, 1-[4-[3-methoxy-4-[(5-methyl-4-pyrazolo[1,5-a]pyridin-3-yl-pyrimidin-2-yl)amino]phenyl]piperazin-1-yl]-2-(methylamino)ethanone]", "IC50": 14}, {"compound": "COc1cc(N2CCN(CCO)CC2)ccc1Nc1ncc(C)c(-c2cnn3ccccc23)n1", "note": "[Example 161, 2-[4-[3-methoxy-4-[(5-methyl-4-pyrazolo[1,5-a]pyridin-3-yl-pyrimidin-2-yl)amino]phenyl]piperazin-1-yl]ethanol]", "IC50": 11}, {"compound": "COc1cc(C2CCNCC2)ccc1Nc1ncc(C)c(-c2cnn3ccccc23)n1", "note": "[Example 162, N-[2-methoxy-4-(4-piperidyl)phenyl]-5-methyl-4-pyrazolo[1,5-a]pyridin-3-yl-pyrimidin-2-amine]", "IC50": 2}, {"compound": "COc1cc(C2CCN(C(=O)CO)CC2)ccc1Nc1ncc(C)c(-c2cnn3ccccc23)n1", "note": "[Example 163, 2-hydroxy-1-[4-[3-methoxy-4-[(5-methyl-4-pyrazolo[1,5-a]pyridin-3-yl-pyrimidin-2-yl)amino]phenyl]-1-piperidyl]ethanone]", "IC50": 16}, {"compound": "COc1cc(C2CCN(C(=O)[C@@H](C)O)CC2)ccc1Nc1ncc(C)c(-c2cnn3ccccc23)n1", "note": "[Example 164, (2R)-2-hydroxy-1-[4-[3-methoxy-4-[(5-methyl-4-pyrazolo[1,5-a]pyridin-3-yl-pyrimidin-2-yl)amino]phenyl]-1-piperidyl]propan-1-one]", "IC50": 15}, {"compound": "COc1cc(N2CC3CN(CCO)CC(C2)O3)ccc1Nc1ncc(C)c(-c2cnn3ccccc23)n1", "note": "[Example 166, 2-[7-[3-methoxy-4-[(5-methyl-4-pyrazolo[1,5-a]pyridin-3-yl-pyrimidin-2-yl)amino]phenyl]-9-oxa-3,7-diazabicyclo[3.3.1]nonan-3-yl]ethanol]", "IC50": 17}, {"compound": "CNCC(=O)N1CCN(c2ccc(OC)c(Nc3ncc(C)c(-c4cnn5ccccc45)n3)c2)CC1", "note": "[Example 167, 1-[4-[4-methoxy-3-[(5-methyl-4-pyrazolo[1,5-a]pyridin-3-yl-pyrimidin-2-yl)amino]phenyl]piperazin-1-yl]-2-(methylamino)ethanone]", "IC50": 49}, {"compound": "COc1cc(N2CCN(C(C)=O)CC2)ccc1Nc1ncc(F)c(-c2cnn3ccccc23)n1", "note": "[Example 170, 1-[4-[4-[(5-fluoro-4-pyrazolo[1,5-a]pyridin-3-yl-pyrimidin-2-yl)amino]-3-methoxy-phenyl]piperazin-1-yl]ethanone]", "IC50": 67}, {"compound": "COc1cc(N2CCNCC2)ccc1Nc1ncc(F)c(-c2cnn3ccccc23)n1", "note": "[Example 171, 5-fluoro-N-(2-methoxy-4-piperazin-1-yl-phenyl)-4-pyrazolo[1,5-a]pyridin-3-yl-pyrimidin-2-amine]", "IC50": 17}, {"compound": "COc1cc(C2CCNCC2)ccc1Nc1ncc(F)c(-c2cnn3ccccc23)n1", "note": "[Example 173, 5-fluoro-N-[2-methoxy-4-(4-piperidyl)phenyl]-4-pyrazolo[1,5-a]pyridin-3-yl-pyrimidin-2-amine]", "IC50": 10}, {"compound": "COc1ccc(N2CCNCC2)cc1Nc1ncc(F)c(-c2cnn3ccccc23)n1", "note": "[Example 174, 5-fluoro-N-(2-methoxy-5-piperazin-1-yl-phenyl)-4-pyrazolo[1,5-a]pyridin-3-yl-pyrimidin-2-amine]", "IC50": 63}, {"compound": "COc1cc(N2CC3CN(CCO)CC(C2)O3)ccc1Nc1ncc(F)c(-c2cnn3ccccc23)n1", "note": "[Example 175, 2-[7-[4-[(5-fluoro-4-pyrazolo[1,5-a]pyridin-3-yl-pyrimidin-2-yl)amino]-3-methoxy-phenyl]-9-oxa-3,7-diazabicyclo[3.3.1]nonan-3-yl]ethanol]", "IC50": 14}, {"compound": "COc1cc2c(cc1Nc1ncc(F)c(-c3cnn4ccccc34)n1)N(C(=O)CN(C)C)CC2", "note": "[Example 176, 2-(dimethylamino)-1-[6-[(5-fluoro-4-pyrazolo[1,5-a]pyridin-3-yl-pyrimidin-2-yl)amino]-5-methoxy-indolin-1-yl]ethanone]", "IC50": 22}, {"compound": "COc1cc(C2CCN(C(C)=O)CC2)ccc1Nc1ncc(Cl)c(-c2cnc3c(F)cccn23)n1", "note": "[Example 177, 1-[4-[4-[[5-chloro-4-(8-fluoroimidazo[1,2-a]pyridin-3-yl)pyrimidin-2-yl]amino]-3-methoxy-phenyl]-1-piperidyl]ethanone]", "IC50": 5}, {"compound": "COc1cc(N2CCN(C(=O)[C@@H](C)O)CC2)ccc1Nc1ncc(Cl)c(-c2cnc3c(F)cccn23)n1", "note": "[Example 178, (2R)-1-[4-[4-[[5-chloro-4-(8-fluoroimidazo[1,2-a]pyridin-3-yl)pyrimidin-2-yl]amino]-3-methoxy-phenyl]piperazin-1-yl]-2-hydroxy-propan-1-one]", "IC50": 15}, {"compound": "COc1cc(C2CCN(C(=O)CO)CC2)ccc1Nc1ncc(Cl)c(-c2cnc3c(F)cccn23)n1", "note": "[Example 179, 1-[4-[4-[[5-chloro-4-(8-fluoroimidazo[1,2-a]pyridin-3-yl)pyrimidin-2-yl]amino]-3-methoxy-phenyl]-1-piperidyl]-2-hydroxy-ethanone]", "IC50": 8}, {"compound": "COc1cc(N2CCN(C(=O)CO)CC2)ccc1Nc1ncc(Cl)c(-c2cnc3c(F)cccn23)n1", "note": "[Example 180, 1-[4-[4-[[5-chloro-4-(8-fluoroimidazo[1,2-a]pyridin-3-yl)pyrimidin-2-yl]amino]-3-methoxy-phenyl]piperazin-1-yl]-2-hydroxy-ethanone]", "IC50": 25}, {"compound": "COc1cc(C(CO)CO)ccc1Nc1ncc(Cl)c(-c2cnc3c(F)cccn23)n1", "note": "[Example 181, 2-[4-[[5-chloro-4-(8-fluoroimidazo[1,2-a]pyridin-3-yl)pyrimidin-2-yl]amino]-3-methoxy-phenyl]propane-1,3-diol]", "IC50": 21}, {"compound": "CNCC(=O)N1CCC(c2ccc(Nc3ncc(Cl)c(-c4cnc5c(F)cccn45)n3)c(OC)c2)CC1", "note": "[Example 182, 1-[4-[4-[[5-chloro-4-(8-fluoroimidazo[1,2-a]pyridin-3-yl)pyrimidin-2-yl]amino]-3-methoxy-phenyl]-1-piperidyl]-2-(methylamino)ethanone]", "IC50": 1}, {"compound": "COc1cc(N2CC3CN(CCO)CC(C2)O3)ccc1Nc1ncc(Cl)c(-c2cnc3c(F)cccn23)n1", "note": "[Example 184, 2-[7-[4-[[5-chloro-4-(8-fluoroimidazo[1,2-a]pyridin-3-yl)pyrimidin-2-yl]amino]-3-methoxy-phenyl]-9-oxa-3,7-diazabicyclo[3.3.1]nonan-3-yl]ethanol]", "IC50": 7}, {"compound": "COc1cc(N2CCN(C(C)=O)CC2)ccc1Nc1ncc(Cl)c(-c2cnc3cc(CN(C)C)ccn23)n1", "note": "[Example 185, 1-[4-[4-[[5-chloro-4-[7-(dimethylaminomethyl)imidazo[1,2-a]pyridin-3-yl]pyrimidin-2-yl]amino]-3-methoxy-phenyl]piperazin-1-yl]ethanone]", "IC50": 170}, {"compound": "CNCc1ccn2c(-c3nc(Nc4ccc(N5CCN(C(C)=O)CC5)cc4OC)ncc3Cl)cnc2c1", "note": "[Example 186, 1-[4-[4-[[5-chloro-4-[7-(methylaminomethyl)imidazo[1,2-a]pyridin-3-yl]pyrimidin-2-yl]amino]-3-methoxy-phenyl]piperazin-1-yl]ethanone]", "IC50": 36}, {"compound": "COc1cc(N2CCN(C(C)=O)CC2)ccc1Nc1ncc(Cl)c(-c2cnc3cc(CN4CCOCC4)ccn23)n1", "note": "[Example 187, 1-[4-[4-[[5-chloro-4-[7-(morpholinomethyl)imidazo[1,2-a]pyridin-3-yl]pyrimidin-2-yl]amino]-3-methoxy-phenyl]piperazin-1-yl]ethanone]", "IC50": 43}, {"compound": "COc1cc(N2CCN(C(C)=O)CC2)ccc1Nc1ncc(Cl)c(-c2cnc3cc(CN(C)C(C)=O)ccn23)n1", "note": "[Example 188, N-[[3-[2-[4-(4-acetylpiperazin-1-yl)-2-methoxy-anilino]-5-chloro-pyrimidin-4-yl]imidazo[1,2-a]pyridin-7-yl]methyl]-N-methyl-acetamide]", "IC50": 120}, {"compound": "COc1ccc(N2CC3CNCC(C2)O3)cc1Nc1ncc(Cl)c(-c2cnn3ccccc23)n1", "note": "[Example 189, 5-chloro-N-[2-methoxy-5-(9-oxa-3,7-diazabicyclo[3.3.1]nonan-7-yl)phenyl]-4-yrazolo[1,5-a]pyridin-3-yl-pyrimidin-2-amine]", "IC50": 95}, {"compound": "COc1cc(CC(CO)CO)ccc1Nc1ncc(Cl)c(-c2cnn3ccccc23)n1", "note": "[Example 190, 2-[[4-[(5-chloro-4-pyrazolo[1,5-a]pyridin-3-yl-pyrimidin-2-yl)amino]-3-methoxy-phenyl]methyl]propane-1,3-diol]", "IC50": 2}, {"compound": "COc1ccc(N2CC3CNCC(C2)O3)cc1Nc1ncc(Cl)c(-c2cnc3c(F)cccn23)n1", "note": "[Example 192, 5-chloro-4-(8-fluoroimidazo[1,2-a]pyridin-3-yl)-N-[2-methoxy-5-(9-oxa-3,7-diazabicyclo[3.3.1]nonan-7-yl)phenyl]pyrimidin-2-amine]", "IC50": 530}, {"compound": "COc1cc(CC(CO)CO)ccc1Nc1ncc(Cl)c(-c2cnc3c(F)cccn23)n1", "note": "[Example 193, 2-[[4-[[5-chloro-4-(8-fluoroimidazo[1,2-a]pyridin-3-yl)pyrimidin-2-yl]amino]-3-methoxy-phenyl]methyl]propane-1,3-diol]", "IC50": 25}, {"compound": "COc1cc(N2CCN(CCO)CC2)ccc1Nc1ncc(Cl)c(-c2cnc3c(F)cccn23)n1", "note": "[Example 194, 2-[4-[4-[[5-chloro-4-(8-fluoroimidazo[1,2-a]pyridin-3-yl)pyrimidin-2-yl]amino]-3-methoxy-phenyl]piperazin-1-yl]ethanol]", "IC50": 15}, {"compound": "COc1cc(N2CCN(CCO)CC2)ccc1Nc1ncc(F)c(-c2cnc3c(F)cccn23)n1", "note": "[Example 195, 2-[4-[4-[[5-fluoro-4-(8-fluoroimidazo[1,2-a]pyridin-3-yl)pyrimidin-2-yl]amino]-3-methoxy-phenyl]piperazin-1-yl]ethanol]", "IC50": 33}, {"compound": "COc1cc(C2CCN(C(C)=O)CC2)ccc1Nc1ncc(C)c(-c2cnc3c(F)cccn23)n1", "note": "[Example 196, 1-[4-[4-[[4-(8-fluoroimidazo[1,2-a]pyridin-3-yl)-5-methyl-pyrimidin-2-yl]amino]-3-methoxy-phenyl]-1-piperidyl]ethanone]", "IC50": 13}]}]}
